Reference: patent EP0499648A1, “Enzymatically debranched starches as tablet excipients” (National Starch and Chemical Investment Holding Corporation, priority 1991, dated 1992)

Key:
[1] = Direct compression tabletting of APAP formula: compression profile (tablet hardness vs. press pressure setting); format: physicochemical; conditions: 64% APAP, 34.75% binder
Protocol: (§1) Direct compression tabletting in a laboratory scale tablet press (Stokes, Model B-2, 16 station rotary tablet press with 3/8'' standard concave punches, obtained from Stokes Co., Warminster, PA) was used to prepare tablets from the following formula: […]
All ingredients except the binder were dry blended, screened through a 10 mesh sieve and blended with the binder.
(§2) Tablets weighing from 360-460 mg were formed in the tablet press at pressure settings from A (low) to I (high) by adjusting the weight setting for each pressure setting. Compressibility is expressed as a profile obtained by increasing the pressure setting until the accompanying increases in the tablet hardness measurements leveled off. Tablet hardness was determined on a hydraulic tablet hardness tester (Delamar, Model PT 1000, obtained from VanKel Industries, Edison, New Jersey) in units of Kg/cm².

[2] = Visual observation of direct compression APAP tablets (structural integrity, capping, splitting, surface); format: physicochemical; conditions: direct compression APAP formula
Protocol: as §1, §2
The starch debranching and tabletting methods of Example 1 were employed to make direct compression tablets according to the formula of Example 1.

Tablet Hardness ([1]; machine position A (low pressure setting)): 0 Kg/cm² | Tablet Hardness ([1]; machine position B): 0 Kg/cm² | Tablet Hardness ([1]; machine position C): 0 Kg/cm² | Tablet Hardness ([1]; machine position D): 0 Kg/cm² | Tablet Hardness ([1]; machine position E): 0 Kg/cm² | Tablet Hardness ([1]; machine position F): 0 Kg/cm² | Tablet Hardness ([1]; machine position G): 0 Kg/cm² | Tablet Hardness ([1]; machine position H): 0 Kg/cm² | Tablet Hardness ([1]; machine position I (high pressure setting)): 0 Kg/cm² | compressibility and structural integrity of tablets (visual observation) [2]: a. Not compressible. | compressibility and structural integrity of tablets (visual observation) ([2]; listed as acetaminophen (APAP)): does not compress to form a tablet
Compound: CC(=O)Nc1ccc(O)cc1 [100% APAP, Acetaminophen]
